Assay results published in US11136351B2 (priority 2016, dated 2021).
No end group written: not given here.

Columns and labels:
Type in all cases: cell-based
[1] = tested on: HVA calcium channels in rat DRG neurons; details: for rat HVA Ca^2+ channel I/Icontrol ± SEM (n): 1 μM
human α7 nAChR = target: T1, human α7 nAChR (Homo sapiens, UniProt P36544); details: 3 μM
T1 construct: expressed in transfected cells; host or cells: Xenopus laevis oocytes

human α9α10 nAChR = target: T2, human α9α10 nAChR (Homo sapiens, UniProt Q9GZZ6+Q9UGM1); details: 3 μM
T2 construct: expressed in transfected cells; host or cells: Xenopus laevis oocytes
T2 sequence (Q9UGM1 26-479 limits assumed): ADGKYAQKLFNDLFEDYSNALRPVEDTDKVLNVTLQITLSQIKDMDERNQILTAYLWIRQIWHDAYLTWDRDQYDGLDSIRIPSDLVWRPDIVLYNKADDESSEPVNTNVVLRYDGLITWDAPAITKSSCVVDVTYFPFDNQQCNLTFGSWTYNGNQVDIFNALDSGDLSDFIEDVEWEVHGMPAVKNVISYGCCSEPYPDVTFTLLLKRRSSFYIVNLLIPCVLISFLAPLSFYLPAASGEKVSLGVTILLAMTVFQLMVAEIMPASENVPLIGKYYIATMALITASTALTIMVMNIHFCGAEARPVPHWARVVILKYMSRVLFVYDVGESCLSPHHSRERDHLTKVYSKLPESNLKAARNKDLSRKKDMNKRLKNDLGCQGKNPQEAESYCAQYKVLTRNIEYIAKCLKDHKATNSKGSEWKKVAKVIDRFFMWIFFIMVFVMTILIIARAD
T2 sequence (Q9GZZ6 25-450): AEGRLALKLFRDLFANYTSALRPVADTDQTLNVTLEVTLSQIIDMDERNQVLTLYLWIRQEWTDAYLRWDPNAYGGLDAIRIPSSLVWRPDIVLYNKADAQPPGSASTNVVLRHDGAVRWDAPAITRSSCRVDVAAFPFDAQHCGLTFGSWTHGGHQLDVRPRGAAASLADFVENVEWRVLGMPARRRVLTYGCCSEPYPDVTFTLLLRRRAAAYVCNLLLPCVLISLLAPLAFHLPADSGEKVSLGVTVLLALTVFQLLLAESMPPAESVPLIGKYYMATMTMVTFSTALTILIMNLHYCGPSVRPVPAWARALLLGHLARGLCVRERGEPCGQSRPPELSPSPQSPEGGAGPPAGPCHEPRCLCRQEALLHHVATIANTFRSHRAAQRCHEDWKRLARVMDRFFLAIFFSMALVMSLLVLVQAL

Pu1.2: native full length Pu1.2, SEQ ID No. 41: G G C C S Y P P C I A N N P L C (GGCCSYPPCIANNPLC; not fully specified; ends and bridges not checked)
inhibition of HVA calcium currents by globular, ribbon and beads isomers [1]: found to inhibit HVA calcium currents | rat HVA Ca^2+ channel I/Icontrol ± SEM (n) [1]: 0.73 ± 0.02 (12) | human α7 nAChR I/Icontrol ± SEM (n) (human α7 nAChR): 0.98 ± 0.03 (6) | human α9α10 nAChR I/Icontrol ± SEM (n) (human α9α10 nAChR): 1.01 ± 0.04 (4)

Pn1.2: native full length Pn1.2, SEQ ID No. 42: G C C S H P P C F L N N P D Y C (GCCSHPPCFLNNPDYC; not fully specified; ends and bridges not checked)
inhibition of HVA calcium currents by globular, ribbon and beads isomers [1]: found to inhibit HVA calcium currents | rat HVA Ca^2+ channel I/Icontrol ± SEM (n) [1]: 0.78 ± 0.03 (11) | human α7 nAChR I/Icontrol ± SEM (n) (human α7 nAChR): 0.006 ± 0.005 (5) | human α9α10 nAChR I/Icontrol ± SEM (n) (human α9α10 nAChR): 0.012 ± 0.001 (4)
